Experiments:
Cannabinoid receptor 1 = Cannabinoid receptor 1 (Homo sapiens, UniProt P21554)
[1] = target: Voltage-dependent L-type calcium channel subunit alpha-1C (Rattus norvegicus, UniProt P22002); type: functional
[2] = target: T1, Muscarinic acetylcholine receptor M1 (Homo sapiens, UniProt P11229); type: functional
T1 sequence (P11229 whole entry): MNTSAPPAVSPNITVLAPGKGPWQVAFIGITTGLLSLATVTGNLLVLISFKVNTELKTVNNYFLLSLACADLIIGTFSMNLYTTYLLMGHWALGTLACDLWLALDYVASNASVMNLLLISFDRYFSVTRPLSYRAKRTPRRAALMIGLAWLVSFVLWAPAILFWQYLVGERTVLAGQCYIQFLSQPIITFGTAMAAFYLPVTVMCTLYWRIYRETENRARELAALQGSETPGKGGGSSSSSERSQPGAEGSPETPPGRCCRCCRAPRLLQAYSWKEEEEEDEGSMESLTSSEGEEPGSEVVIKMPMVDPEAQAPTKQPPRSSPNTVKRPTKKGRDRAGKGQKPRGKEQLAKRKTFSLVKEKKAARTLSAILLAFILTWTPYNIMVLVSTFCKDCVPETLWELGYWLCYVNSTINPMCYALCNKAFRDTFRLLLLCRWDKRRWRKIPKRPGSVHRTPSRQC

Vasopressin V1a receptor = Vasopressin V1a receptor (Homo sapiens, UniProt P37288)
[3] = target: T2, Alpha-1A adrenergic receptor (Homo sapiens, UniProt P35348)
T2 sequence (P35348 whole entry): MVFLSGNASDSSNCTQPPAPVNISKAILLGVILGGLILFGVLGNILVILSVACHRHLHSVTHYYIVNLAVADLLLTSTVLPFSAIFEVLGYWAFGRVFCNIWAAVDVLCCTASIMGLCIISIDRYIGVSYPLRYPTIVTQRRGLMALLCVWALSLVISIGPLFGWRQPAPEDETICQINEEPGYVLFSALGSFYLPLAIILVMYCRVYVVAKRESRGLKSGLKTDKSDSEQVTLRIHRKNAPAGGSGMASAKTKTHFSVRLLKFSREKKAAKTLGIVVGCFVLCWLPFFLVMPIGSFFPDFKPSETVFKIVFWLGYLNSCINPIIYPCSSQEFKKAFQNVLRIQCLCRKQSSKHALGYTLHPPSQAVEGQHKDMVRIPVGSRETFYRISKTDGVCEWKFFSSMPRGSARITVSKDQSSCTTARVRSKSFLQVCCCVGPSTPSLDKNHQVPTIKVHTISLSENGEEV

[4] = target: Muscarinic acetylcholine receptor M3 (Homo sapiens, UniProt P20309)
B2 bradykinin receptor = target: T3, B2 bradykinin receptor (Homo sapiens, UniProt P30411)
T3 sequence (P30411 whole entry): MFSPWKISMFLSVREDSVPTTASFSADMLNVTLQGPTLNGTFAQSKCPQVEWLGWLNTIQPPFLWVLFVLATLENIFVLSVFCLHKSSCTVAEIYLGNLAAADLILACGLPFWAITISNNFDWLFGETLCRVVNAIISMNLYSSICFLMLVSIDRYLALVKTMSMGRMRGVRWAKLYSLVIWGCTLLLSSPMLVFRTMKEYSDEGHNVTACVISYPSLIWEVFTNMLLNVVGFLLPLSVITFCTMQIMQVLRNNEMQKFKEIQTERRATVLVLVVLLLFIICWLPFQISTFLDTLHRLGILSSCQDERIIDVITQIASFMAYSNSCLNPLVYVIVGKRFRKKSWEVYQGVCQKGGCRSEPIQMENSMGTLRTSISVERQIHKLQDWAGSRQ

[5] = target: T2, Alpha-1A adrenergic receptor; type: functional, cell-based
Mu-type opioid receptor = Mu-type opioid receptor (Homo sapiens, UniProt P35372)
Melanocortin receptor 4 = Melanocortin receptor 4 (Homo sapiens, UniProt P32245)
Progesterone receptor = target: T4, Progesterone receptor (Homo sapiens, UniProt P06401); type: functional
T4 sequence (P06401 whole entry): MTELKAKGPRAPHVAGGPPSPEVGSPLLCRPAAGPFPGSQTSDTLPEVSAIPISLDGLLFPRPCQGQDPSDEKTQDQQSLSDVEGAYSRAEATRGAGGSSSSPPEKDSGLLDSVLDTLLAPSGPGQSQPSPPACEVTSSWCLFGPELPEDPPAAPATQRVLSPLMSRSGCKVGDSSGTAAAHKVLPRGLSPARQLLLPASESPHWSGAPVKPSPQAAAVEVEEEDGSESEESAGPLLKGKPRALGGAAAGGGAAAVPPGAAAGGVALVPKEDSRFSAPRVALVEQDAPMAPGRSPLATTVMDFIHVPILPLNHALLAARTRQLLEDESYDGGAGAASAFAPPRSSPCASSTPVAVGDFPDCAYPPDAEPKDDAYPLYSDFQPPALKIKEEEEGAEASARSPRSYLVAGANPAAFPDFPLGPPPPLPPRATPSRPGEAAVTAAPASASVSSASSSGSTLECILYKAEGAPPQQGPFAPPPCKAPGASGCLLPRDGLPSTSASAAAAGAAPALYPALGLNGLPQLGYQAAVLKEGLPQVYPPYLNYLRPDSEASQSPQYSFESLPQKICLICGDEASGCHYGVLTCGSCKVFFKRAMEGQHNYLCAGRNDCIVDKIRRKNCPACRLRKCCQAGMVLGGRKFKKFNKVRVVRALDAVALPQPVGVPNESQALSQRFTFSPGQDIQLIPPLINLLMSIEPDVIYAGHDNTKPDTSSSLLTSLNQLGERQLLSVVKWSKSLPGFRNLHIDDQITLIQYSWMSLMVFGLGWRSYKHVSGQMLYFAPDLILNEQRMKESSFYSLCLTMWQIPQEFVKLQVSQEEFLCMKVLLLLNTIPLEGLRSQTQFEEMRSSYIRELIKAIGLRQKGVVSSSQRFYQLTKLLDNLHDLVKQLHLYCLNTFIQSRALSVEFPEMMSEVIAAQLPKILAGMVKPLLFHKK
Also: assay procedure not described here.

Voltage-dependent L-type calcium channel subunit alpha-1C, sequence (P22002 whole entry): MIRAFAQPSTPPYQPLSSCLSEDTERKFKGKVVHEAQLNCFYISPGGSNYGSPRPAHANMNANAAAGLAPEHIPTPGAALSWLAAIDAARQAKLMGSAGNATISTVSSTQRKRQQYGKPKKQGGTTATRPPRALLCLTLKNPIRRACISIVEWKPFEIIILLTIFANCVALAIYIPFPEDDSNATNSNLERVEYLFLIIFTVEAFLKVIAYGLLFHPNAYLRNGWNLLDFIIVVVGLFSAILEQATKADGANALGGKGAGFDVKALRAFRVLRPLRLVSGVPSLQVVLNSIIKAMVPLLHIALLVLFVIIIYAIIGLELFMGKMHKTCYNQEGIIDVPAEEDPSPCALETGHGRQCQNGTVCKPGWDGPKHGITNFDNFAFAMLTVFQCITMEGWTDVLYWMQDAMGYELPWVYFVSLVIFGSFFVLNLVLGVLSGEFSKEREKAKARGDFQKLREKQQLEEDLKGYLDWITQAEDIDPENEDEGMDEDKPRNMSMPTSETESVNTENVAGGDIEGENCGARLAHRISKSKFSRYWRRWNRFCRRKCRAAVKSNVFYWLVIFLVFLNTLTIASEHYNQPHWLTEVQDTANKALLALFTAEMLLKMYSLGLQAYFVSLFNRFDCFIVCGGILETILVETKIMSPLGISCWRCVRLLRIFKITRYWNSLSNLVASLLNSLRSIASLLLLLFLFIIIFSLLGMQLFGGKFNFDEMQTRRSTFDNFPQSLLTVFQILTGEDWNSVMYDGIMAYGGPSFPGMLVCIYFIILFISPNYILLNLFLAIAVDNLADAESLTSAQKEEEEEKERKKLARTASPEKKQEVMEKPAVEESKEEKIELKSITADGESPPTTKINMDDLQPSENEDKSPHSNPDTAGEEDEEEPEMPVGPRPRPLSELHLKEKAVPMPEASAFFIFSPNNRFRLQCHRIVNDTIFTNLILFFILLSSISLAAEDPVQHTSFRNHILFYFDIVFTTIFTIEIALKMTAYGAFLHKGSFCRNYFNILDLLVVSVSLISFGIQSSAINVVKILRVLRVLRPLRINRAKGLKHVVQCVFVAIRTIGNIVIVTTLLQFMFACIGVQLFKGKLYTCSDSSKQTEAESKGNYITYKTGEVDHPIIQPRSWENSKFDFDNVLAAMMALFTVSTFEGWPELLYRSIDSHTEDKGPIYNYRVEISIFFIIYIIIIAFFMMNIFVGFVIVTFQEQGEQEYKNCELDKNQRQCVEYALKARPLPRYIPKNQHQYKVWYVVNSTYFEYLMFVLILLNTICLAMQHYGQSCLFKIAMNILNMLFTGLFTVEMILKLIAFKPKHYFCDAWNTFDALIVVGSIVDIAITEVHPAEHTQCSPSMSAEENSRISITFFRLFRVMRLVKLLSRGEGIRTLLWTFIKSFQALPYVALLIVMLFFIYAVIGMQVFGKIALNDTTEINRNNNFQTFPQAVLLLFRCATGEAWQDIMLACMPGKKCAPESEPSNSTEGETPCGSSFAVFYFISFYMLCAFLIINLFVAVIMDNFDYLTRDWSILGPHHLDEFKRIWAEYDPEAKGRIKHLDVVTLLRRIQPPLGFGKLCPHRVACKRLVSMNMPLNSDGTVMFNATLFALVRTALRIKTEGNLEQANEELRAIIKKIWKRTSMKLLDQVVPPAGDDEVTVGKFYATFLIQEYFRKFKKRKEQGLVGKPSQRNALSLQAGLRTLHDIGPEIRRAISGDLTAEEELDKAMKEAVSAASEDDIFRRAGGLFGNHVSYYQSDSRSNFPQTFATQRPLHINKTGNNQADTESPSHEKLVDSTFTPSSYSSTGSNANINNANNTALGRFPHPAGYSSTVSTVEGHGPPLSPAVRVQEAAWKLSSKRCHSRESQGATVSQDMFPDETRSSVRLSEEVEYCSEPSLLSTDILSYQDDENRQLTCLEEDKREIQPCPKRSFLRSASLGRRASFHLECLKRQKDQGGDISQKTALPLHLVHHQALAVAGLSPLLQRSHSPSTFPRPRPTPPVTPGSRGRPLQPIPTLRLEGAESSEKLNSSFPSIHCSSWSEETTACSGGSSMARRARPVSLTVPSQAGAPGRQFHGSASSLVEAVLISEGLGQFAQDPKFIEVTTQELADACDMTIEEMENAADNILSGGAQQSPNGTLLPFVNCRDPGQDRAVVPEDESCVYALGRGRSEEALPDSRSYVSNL
Melanocortin receptor 4, sequence (P32245 whole entry): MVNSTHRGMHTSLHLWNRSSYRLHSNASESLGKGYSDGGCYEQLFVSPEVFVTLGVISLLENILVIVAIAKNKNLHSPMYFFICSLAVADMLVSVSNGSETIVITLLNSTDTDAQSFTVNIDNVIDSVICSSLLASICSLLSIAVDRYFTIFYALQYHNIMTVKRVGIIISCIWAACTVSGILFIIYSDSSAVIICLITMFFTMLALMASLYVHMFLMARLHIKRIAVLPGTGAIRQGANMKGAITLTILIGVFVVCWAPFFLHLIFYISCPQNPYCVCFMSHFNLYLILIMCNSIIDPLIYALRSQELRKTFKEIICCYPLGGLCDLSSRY
Cannabinoid receptor 1, sequence (P21554 whole entry): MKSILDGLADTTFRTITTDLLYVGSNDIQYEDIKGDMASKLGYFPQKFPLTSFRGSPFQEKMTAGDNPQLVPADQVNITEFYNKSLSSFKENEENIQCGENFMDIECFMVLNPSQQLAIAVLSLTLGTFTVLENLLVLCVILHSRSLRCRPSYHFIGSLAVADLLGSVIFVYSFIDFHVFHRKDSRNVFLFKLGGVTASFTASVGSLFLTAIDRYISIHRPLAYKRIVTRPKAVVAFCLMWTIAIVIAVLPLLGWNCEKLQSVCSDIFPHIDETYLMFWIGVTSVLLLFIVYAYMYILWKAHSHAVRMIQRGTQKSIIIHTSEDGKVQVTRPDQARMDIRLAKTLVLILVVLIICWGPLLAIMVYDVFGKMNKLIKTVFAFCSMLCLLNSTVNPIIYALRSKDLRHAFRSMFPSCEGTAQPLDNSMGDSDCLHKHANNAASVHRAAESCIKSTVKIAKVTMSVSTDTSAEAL
Mu-type opioid receptor, sequence (P35372 whole entry): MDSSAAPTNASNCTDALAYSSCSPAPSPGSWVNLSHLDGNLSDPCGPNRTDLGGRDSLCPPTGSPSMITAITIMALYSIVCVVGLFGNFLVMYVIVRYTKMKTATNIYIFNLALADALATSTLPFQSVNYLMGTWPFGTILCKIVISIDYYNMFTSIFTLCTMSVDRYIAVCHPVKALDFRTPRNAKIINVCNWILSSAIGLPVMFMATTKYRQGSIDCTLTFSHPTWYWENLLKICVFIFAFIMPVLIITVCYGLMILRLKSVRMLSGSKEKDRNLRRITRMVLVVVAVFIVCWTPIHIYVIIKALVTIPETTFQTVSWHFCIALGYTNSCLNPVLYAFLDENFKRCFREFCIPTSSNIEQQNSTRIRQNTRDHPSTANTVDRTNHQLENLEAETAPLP
Vasopressin V1a receptor, sequence (P37288 whole entry): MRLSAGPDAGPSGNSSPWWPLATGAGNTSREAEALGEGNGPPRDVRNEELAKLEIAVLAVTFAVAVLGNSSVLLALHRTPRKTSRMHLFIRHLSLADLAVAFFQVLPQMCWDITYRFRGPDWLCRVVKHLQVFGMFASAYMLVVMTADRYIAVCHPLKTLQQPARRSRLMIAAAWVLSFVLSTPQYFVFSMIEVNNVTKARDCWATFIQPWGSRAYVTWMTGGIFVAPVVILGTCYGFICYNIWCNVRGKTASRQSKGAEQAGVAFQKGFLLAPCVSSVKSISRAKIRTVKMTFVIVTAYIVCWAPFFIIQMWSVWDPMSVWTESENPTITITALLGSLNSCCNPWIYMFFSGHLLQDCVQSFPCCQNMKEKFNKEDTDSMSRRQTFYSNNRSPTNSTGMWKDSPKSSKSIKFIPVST
Muscarinic acetylcholine receptor M3, sequence (P20309 whole entry): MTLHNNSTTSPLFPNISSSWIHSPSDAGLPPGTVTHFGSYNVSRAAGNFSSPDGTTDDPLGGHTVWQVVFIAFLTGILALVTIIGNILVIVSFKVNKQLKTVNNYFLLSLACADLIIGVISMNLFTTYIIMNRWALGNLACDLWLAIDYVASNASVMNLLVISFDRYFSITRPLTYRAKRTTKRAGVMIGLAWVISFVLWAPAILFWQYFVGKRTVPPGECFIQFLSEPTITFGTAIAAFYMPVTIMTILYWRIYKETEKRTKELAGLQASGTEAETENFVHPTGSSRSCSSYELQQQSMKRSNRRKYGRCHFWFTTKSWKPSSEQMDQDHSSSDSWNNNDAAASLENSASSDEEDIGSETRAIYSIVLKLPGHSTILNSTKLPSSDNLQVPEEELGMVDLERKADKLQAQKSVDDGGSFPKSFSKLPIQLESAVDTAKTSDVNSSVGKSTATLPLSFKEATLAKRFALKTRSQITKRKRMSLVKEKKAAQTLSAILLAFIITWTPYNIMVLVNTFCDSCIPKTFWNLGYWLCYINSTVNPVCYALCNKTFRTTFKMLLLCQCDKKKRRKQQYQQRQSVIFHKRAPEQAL

SMILES | AC50 (Cannabinoid receptor 1) [µM] | AC50 [1] [µM] | AC50 [2] [µM] | AC50 (Vasopressin V1a receptor) [µM] | AC50 [3] [µM] | AC50 [4] [µM] | AC50 (B2 bradykinin receptor) [µM] | AC50 [5] [µM] | AC50 (Mu-type opioid receptor) [µM] | AC50 (Melanocortin receptor 4) [µM] | AC50 (Progesterone receptor) [µM]
COc1ccc2cccc(CCNC(C)=O)c2c1 [AGOMELATINE] | > 10 | > 10 | > 10 | > 10 | > 10 | > 10 | > 30 | > 30 | > 30 | > 30 | –
CC(=O)OCC(=O)[C@@]12OC3(CCCC3)O[C@@H]1C[C@H]1[C@@H]3CCC4=CC(=O)C=C[C@]4(C)[C@@]3(F)[C@@H](O)C[C@@]12C [AMCINONIDE] | 4.25 | > 10 | > 10 | > 10 | > 10 | > 30 | > 10 | – | > 30 | > 10 | 0.212
CC(C)C(=O)OCC(=O)[C@@]12O[C@H](C3CCCCC3)O[C@@H]1C[C@H]1[C@@H]3CCC4=CC(=O)C=C[C@]4(C)[C@H]3[C@@H](O)C[C@@]12C [CICLESONIDE] | 12.1 | > 10 | > 10 | > 10 | > 10 | > 30 | > 10 | > 30 | > 30 | > 10 | 7.1
CN1C(=O)CC(=O)N(c2ccccc2)c2cc(Cl)ccc21 [CLOBAZAM] | > 10 | > 10 | > 10 | > 10 | > 10 | > 30 | > 10 | – | > 30 | > 10 | > 10
CCCCOc1cc(C(=O)NCCN(CC)CC)c2ccccc2n1 [DIBUCAINE] | > 10 | > 10 | > 10 | > 30 | > 10 | > 30 | > 30 | > 30 | > 30 | > 30 | > 10
C#CC1(OC(N)=O)CCCCC1 [ETHINAMATE] | > 10 | > 10 | > 10 | > 10 | > 10 | > 30 | > 10 | – | > 30 | > 10 | > 10
COc1c(N2CCNC(C)C2)c(F)cc2c(=O)c(C(=O)O)cn(C3CC3)c12 (stereo not given) [GATIFLOXACIN] | > 10 | > 10 | – | – | > 30 | – | > 10 | – | > 30 | > 10 | > 10
O=C(CCCCC(=O)Nc1c(I)cc(I)c(C(=O)O)c1I)Nc1c(I)cc(I)c(C(=O)O)c1I [IODIPAMIDE] | > 10 | > 10 | > 10 | > 10 | > 30 | > 30 | > 10 | – | > 30 | > 10 | > 10
CC(C)[N+](C)(CCC(C(N)=O)(c1ccccc1)c1ccccc1)C(C)C [ISOPROPAMIDE] | > 10 | > 10 | 0.013 | > 10 | > 10 | 0.0056 | > 10 | – | > 30 | > 10 | > 10
CC1=CC(=O)c2ccccc2C1=O [MENADIONE] | > 10 | > 10 | > 30 | > 10 | > 30 | > 30 | > 10 | – | > 30 | > 10 | > 30
COc1ccccc1OCC(O)COC(N)=O (stereo not given) [METHOCARBAMOL] | > 10 | > 10 | – | – | > 10 | – | > 10 | – | > 30 | > 10 | > 30
CN1CCCN=C1COC(=O)C(O)(c1ccccc1)C1CCCCC1 (stereo not given) [OXYPHENCYCLIMINE] | > 10 | > 10 | 0.019 | > 10 | > 10 | > 30 | > 10 | – | > 30 | > 10 | > 10
CN1CCC2=C(C1)C(c1ccccc1)c1ccccc12 (stereo not given) [PHENINDAMINE] | > 10 | > 10 | > 10 | > 10 | > 10 | > 30 | > 10 | – | > 30 | > 10 | > 30
CN1C(=O)CC(c2ccccc2)C1=O (stereo not given) [PHENSUXIMIDE] | > 10 | > 10 | > 10 | > 10 | > 10 | > 30 | > 10 | – | > 30 | > 10 | > 10
O=C(O)CCCc1ccccc1 [PHENYLBUTANOIC ACID] | > 30 | > 30 | > 30 | > 30 | 14 | > 30 | > 30 | > 30 | > 10 | > 10 | –
C#CCN[C@@H]1CCc2ccccc21 [RASAGILINE] | > 30 | > 30 | > 30 | > 30 | 20 | > 30 | > 30 | – | – | > 30 | > 30
C#CCN(C)[C@H](C)Cc1ccccc1 [SELEGILINE] | > 10 | > 10 | – | – | 12.7 | – | > 10 | > 30 | > 30 | > 10 | > 10
CN[C@@H]1[C@H](O)[C@H](NC)[C@H]2O[C@@]3(O)C(=O)C[C@@H](C)O[C@H]3O[C@@H]2[C@H]1O [SPECTINOMYCIN] | > 10 | > 10 | – | – | > 10 | – | > 10 | – | > 30 | > 10 | > 10
CC(=O)NS(=O)(=O)c1ccc(N)cc1 [SULFACETAMIDE] | > 10 | > 10 | > 10 | > 10 | > 10 | > 30 | > 10 | – | > 30 | > 10 | > 10

— ChEMBL document CHEMBL5291721, “A preclinical secondary pharmacology resource illuminates target-adverse drug reaction associations of marketed drugs” (Nat Commun, 2023)
